The text below walks through data of patent US8710070B2, “Opioid-ketamine and norketamine codrug combinations for pain management” (University of Kentucky Research Foundation, priority 2008, dated 2014).

One assay has as its system Male Rats. To be noted: individual rats.
In another assay the test system is NMDA receptor. The note with it: Ebert et al., 1997; cited from earlier work.
The conditions of assay [1]: C. S. T. Aun, 1999, cited from earlier work.

Where “and” joins values, the source holds several entries; their conditions need not be identical. Equal values may be shown once. Read-outs that look alike come from different tables or passages of the source.

Protocol for Male Rats: • 1) Solution MOR 3 mg/ul (the same Mor. […] 1) • 2) (+) Norketamine 3 mg/ml dose 3 mg/kg inj.
• TFL—intensity 40%, idle activity 5%, cut-off 10 sec.
• TFL—Intensity 40%, idle activity 5%, cut-off 10 sec.
• TFL—Intensity 40%, idle activity 5%, cut-off 10 seconds Solutions:

For `CN1CC[C@]23c4c5ccc(O)c4O[C@H]2[C@@H](O)C=C[C@H]3[C@H]1C5` [Morphine, morphine], the “TFL 15 min.” value in the assay on Male Rats (Day 1, male rats 5-8, MOR 3 mg/kg + SAL or (+) Norket 3 mg/kg, 15 min after injection, listed as MOR) is 3.24 s and 3.55 s; with Male Rats (Day 2, male rats 1-4, Mor 3 mg/kg & (−) Norketamine 3 mg/kg or saline, 15 min, cut-off 10 sec, listed as Mor) it was 2.03 s and 4.89 s; in the assay on Male Rats (Day 2, male rats 5-8, 3 mg/kg Mor & 3 mg/kg (+) Norketamine or saline, 15 min, cut-off 10 sec, listed as Mor) it was 3.41 s and 3.48 s; in the assay with Male Rats (second series, Day 1, male rats 1-4, 3 mg/kg Morphine & saline or 3 mg/kg (−) Norketamine, 15 min, cut-off 10 sec) it was 2.92 s and 1.82 s; with Male Rats (second series, Day 1, male rats 5-8, 3 mg/kg Morphine & saline or 3 mg/kg (+) Norketamine, 15 min, cut-off 10 sec) it was 2.97 s and 2.88 s; in the assay with Male Rats (second series, Day 2, male rats 5-8, 3 mg/kg Morphine & 3 mg/kg (+) Norketamine or saline, 15 min, cut-off 10 seconds), 2.25 s and 1.56 s. In addition, the “TFL 30 min.” value was 5.72 s and 6.2 s in the assay with Male Rats (Day 1, male rats 5-8, MOR 3 mg/kg + SAL or (+) Norket 3 mg/kg, 30 min after injection, listed as MOR); 2.74 s and 7.26 s with Male Rats (Day 2, male rats 1-4, Mor 3 mg/kg & (−) Norketamine 3 mg/kg or saline, 30 min, cut-off 10 sec, listed as Mor); 4.09 s and 3.22 s in the assay on Male Rats (Day 2, male rats 5-8, 3 mg/kg Mor & 3 mg/kg (+) Norketamine or saline, 30 min, cut-off 10 sec, listed as Mor); 3.64 s and 2.36 s in the assay with Male Rats (second series, Day 1, male rats 1-4, 3 mg/kg Morphine & saline or 3 mg/kg (−) Norketamine, 30 min, cut-off 10 sec); 2.75 s and 3.86 s with Male Rats (second series, Day 1, male rats 5-8, 3 mg/kg Morphine & saline or 3 mg/kg (+) Norketamine, 30 min, cut-off 10 sec); 2.46 s and 1.97 s in the assay on Male Rats (second series, Day 2, male rats 5-8, 3 mg/kg Morphine & 3 mg/kg (+) Norketamine or saline, 30 min, cut-off 10 seconds). Moreover, the “TFL 60 min.” value in the assay on Male Rats (Day 1, male rats 5-8, MOR 3 mg/kg + SAL or (+) Norket 3 mg/kg, 60 min after injection, listed as MOR) was 1.93 s and 4.50 s; in the assay on Male Rats (Day 2, male rats 1-4, Mor 3 mg/kg & (−) Norketamine 3 mg/kg or saline, 60 min, cut-off 10 sec, listed as Mor), 1.94 s and 6.84 s; in the assay with Male Rats (Day 2, male rats 5-8, 3 mg/kg Mor & 3 mg/kg (+) Norketamine or saline, 60 min, cut-off 10 sec, listed as Mor) it was 4.03 s and 3.01 s; in the assay on Male Rats (second series, Day 1, male rats 1-4, 3 mg/kg Morphine & saline or 3 mg/kg (−) Norketamine, 60 min, cut-off 10 sec), 3.28 s and 3.30 s; in the assay on Male Rats (second series, Day 1, male rats 5-8, 3 mg/kg Morphine & saline or 3 mg/kg (+) Norketamine, 60 min, cut-off 10 sec) it was 3.51 s and 3.69 s; in the assay on Male Rats (second series, Day 2, male rats 5-8, 3 mg/kg Morphine & 3 mg/kg (+) Norketamine or saline, 60 min, cut-off 10 seconds), 3.83 s and 2.08 s. Besides, the “TFL 120 min.” value is 1.61 s and 5.44 s with Male Rats (Day 1, male rats 5-8, MOR 3 mg/kg + SAL or (+) Norket 3 mg/kg, 120 min after injection, listed as MOR); 1.48 s and 5.37 s with Male Rats (Day 2, male rats 1-4, Mor 3 mg/kg & (−) Norketamine 3 mg/kg or saline, 120 min, cut-off 10 sec, listed as Mor); 2.94 s and 2.12 s in the assay on Male Rats (Day 2, male rats 5-8, 3 mg/kg Mor & 3 mg/kg (+) Norketamine or saline, 120 min, cut-off 10 sec, listed as Mor); 2.74 s and 1.92 s in the assay with Male Rats (second series, Day 1, male rats 1-4, 3 mg/kg Morphine & saline or 3 mg/kg (−) Norketamine, 120 min, cut-off 10 sec); 2.70 s and 2.17 s in the assay with Male Rats (second series, Day 1, male rats 5-8, 3 mg/kg Morphine & saline or 3 mg/kg (+) Norketamine, 120 min, cut-off 10 sec); 2.60 s and 2.24 s with Male Rats (second series, Day 2, male rats 5-8, 3 mg/kg Morphine & 3 mg/kg (+) Norketamine or saline, 120 min, cut-off 10 seconds).

On to `NC1(c2ccccc2Cl)CCCCC1=O` (stereo not drawn) [Norketamine, 2-(2-chlorophenyl)-2-amino-cyclohexanone], for which, in the assay with NMDA receptor, the “binding to the NMDA receptor relative to S- and R-ketamine” value is on record as “less tightly than either S- or R-ketamine”. Moreover, the “anesthetic and analgesic potency relative to ketamine” value in assay [1] (speculated) is on record as “one third that of ketamine”.

As for `CN[C@]1(c2ccccc2Cl)CCCCC1=O` [S-ketamine], the “potency relative to R-ketamine” value in assay [1] is “twice as potent as R-ketamine”.
